Assay results published in article PMC12090182, “Repurposing of the RIPK1-Selective Benzo[1,4]oxazepin-4-one Scaffold for the Development of a Type III LIMK1/2 Inhibitor” (ACS Chemical Biology, 2025).

Experiments:
Format in all cases: binding
CAMK1DA = CAMK1DA (Homo sapiens, UniProt Q8IU85); assay: DSF selectivity screening; conditions: 10 μM compound
Outline: (§1)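 Thermal shift: 2 μM kinase domain + 10 μM cpd, 20 mM HEPES pH 7.5/500 mM NaCl, SYPRO Orange; ramp 3 °C/min, ex 465/em 590 nm; Tm from Boltzmann fit inflection.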

CAMK4A = CAMK4A (Homo sapiens, UniProt Q16566); assay: DSF selectivity screening; conditions: 10 μM compound
Outline: as §1

CAMKK2B = CAMKK2B (Homo sapiens, UniProt Q96RR4); assay: DSF selectivity screening; conditions: 10 μM compound
CAMKK2B, sequence (Q96RR4 161-449): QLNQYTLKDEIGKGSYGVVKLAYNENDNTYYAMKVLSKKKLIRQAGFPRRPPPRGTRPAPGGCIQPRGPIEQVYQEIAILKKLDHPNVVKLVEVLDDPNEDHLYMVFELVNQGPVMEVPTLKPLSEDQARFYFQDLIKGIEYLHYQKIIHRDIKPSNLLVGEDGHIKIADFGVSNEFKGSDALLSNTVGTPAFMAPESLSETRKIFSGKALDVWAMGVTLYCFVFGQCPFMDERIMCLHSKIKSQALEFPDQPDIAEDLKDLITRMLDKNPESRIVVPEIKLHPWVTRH
Outline: as §1

CDC42BPAA = assay: DSF selectivity screening; conditions: 10 μM compound
Outline: as §1

CHEK2A = CHEK2A (Homo sapiens, UniProt O96017); assay: DSF selectivity screening; conditions: 10 μM compound
Outline: as §1

DAPK1A = DAPK1A (Homo sapiens, UniProt P53355); assay: DSF selectivity screening; conditions: 10 μM compound
DAPK1A, sequence (P53355 1-285): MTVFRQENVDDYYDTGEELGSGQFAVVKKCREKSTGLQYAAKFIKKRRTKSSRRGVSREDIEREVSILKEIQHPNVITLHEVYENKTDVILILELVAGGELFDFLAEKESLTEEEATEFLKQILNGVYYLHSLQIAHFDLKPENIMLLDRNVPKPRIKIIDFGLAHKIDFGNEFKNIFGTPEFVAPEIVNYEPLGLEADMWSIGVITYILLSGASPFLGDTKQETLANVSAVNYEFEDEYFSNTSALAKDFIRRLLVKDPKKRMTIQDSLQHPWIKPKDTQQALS
Outline: as §1

EPHA7A = EPHA7A (Homo sapiens, UniProt Q15375); assay: DSF selectivity screening; conditions: 10 μM compound
Outline: as §1

FGFR2A = FGFR2A (Homo sapiens, UniProt P21802); assay: DSF selectivity screening; conditions: 10 μM compound
FGFR2A, sequence (P21802 458-770): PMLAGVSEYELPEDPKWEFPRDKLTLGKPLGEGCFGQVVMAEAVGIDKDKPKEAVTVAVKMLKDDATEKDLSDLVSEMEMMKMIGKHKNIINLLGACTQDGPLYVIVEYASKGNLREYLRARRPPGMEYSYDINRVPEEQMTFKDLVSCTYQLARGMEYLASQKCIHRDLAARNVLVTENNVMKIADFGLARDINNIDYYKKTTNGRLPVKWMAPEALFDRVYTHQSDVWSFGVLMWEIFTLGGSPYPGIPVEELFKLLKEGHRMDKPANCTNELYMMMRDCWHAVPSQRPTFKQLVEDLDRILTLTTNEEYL
Outline: as §1

MAP2K6A = MAP2K6A (Homo sapiens, UniProt P52564); assay: DSF selectivity screening; conditions: 10 μM compound
MAP2K6A, sequence (P52564 53-314): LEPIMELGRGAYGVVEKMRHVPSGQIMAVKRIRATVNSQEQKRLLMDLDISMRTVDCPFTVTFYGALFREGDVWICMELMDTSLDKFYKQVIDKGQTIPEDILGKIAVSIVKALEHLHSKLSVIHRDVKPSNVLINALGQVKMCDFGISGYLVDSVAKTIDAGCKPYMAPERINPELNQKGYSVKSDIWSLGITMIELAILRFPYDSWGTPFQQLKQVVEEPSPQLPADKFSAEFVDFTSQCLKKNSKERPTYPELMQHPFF
Outline: as §1

MAP2K7 = MAP2K7 (Homo sapiens, UniProt O14733); assay: DSF selectivity screening; conditions: 10 μM compound
MAP2K7, sequence (O14733 120-380): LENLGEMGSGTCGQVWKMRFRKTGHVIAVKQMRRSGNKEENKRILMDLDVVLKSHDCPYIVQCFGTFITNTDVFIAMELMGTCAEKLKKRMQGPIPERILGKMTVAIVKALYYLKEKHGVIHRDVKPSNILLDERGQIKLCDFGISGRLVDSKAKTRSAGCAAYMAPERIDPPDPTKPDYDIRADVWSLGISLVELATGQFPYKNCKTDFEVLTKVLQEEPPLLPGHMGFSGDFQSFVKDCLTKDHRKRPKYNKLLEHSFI
Outline: as §1

MAP3K5A = MAP3K5A (Homo sapiens, UniProt Q99683); assay: DSF selectivity screening; conditions: 10 μM compound
MAP3K5A, sequence (Q99683 659-951): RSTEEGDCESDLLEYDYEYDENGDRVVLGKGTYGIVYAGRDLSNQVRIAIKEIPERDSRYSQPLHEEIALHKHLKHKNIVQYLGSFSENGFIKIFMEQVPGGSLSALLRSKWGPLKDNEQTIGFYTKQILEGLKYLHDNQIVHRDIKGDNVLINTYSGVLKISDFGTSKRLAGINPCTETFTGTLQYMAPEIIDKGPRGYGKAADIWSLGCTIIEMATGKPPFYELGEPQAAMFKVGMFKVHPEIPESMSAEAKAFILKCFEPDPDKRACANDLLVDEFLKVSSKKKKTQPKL
Outline: as §1

MAPK15A = MAPK15A (Homo sapiens, UniProt Q8TD08); assay: DSF selectivity screening; conditions: 10 μM compound
Outline: as §1

MAPK1A = MAPK1A (Homo sapiens, UniProt P28482); assay: DSF selectivity screening; conditions: 10 μM compound
MAPK1A, sequence (P28482 whole entry): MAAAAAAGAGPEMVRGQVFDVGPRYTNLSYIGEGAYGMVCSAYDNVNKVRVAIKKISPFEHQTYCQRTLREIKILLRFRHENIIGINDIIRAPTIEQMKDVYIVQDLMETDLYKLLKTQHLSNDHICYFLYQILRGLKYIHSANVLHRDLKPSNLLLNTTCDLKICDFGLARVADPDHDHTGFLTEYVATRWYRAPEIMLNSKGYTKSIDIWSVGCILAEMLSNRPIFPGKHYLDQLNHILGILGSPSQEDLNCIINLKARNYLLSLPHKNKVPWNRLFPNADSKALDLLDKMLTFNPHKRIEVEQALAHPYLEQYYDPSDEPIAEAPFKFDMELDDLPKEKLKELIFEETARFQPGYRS
Outline: as §1

MAPKAPK2A = MAPKAPK2A (Homo sapiens, UniProt P49137); assay: DSF selectivity screening; conditions: 10 μM compound
MAPKAPK2A, sequence (P49137 64-325): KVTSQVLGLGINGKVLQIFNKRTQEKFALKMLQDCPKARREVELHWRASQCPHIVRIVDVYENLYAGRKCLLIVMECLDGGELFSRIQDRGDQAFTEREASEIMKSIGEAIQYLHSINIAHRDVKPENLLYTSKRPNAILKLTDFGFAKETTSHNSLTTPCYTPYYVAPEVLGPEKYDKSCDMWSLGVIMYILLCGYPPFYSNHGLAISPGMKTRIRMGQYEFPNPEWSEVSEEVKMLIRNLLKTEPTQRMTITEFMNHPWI
Outline: as §1

MARK3A = MARK3A (Homo sapiens, UniProt P27448); assay: DSF selectivity screening; conditions: 10 μM compound
Outline: as §1

MARK4A = MARK4A (Homo sapiens, UniProt Q96L34); assay: DSF selectivity screening; conditions: 10 μM compound
Outline: as §1

NEK2 = NEK2 (Homo sapiens, UniProt P51955); assay: DSF selectivity screening; conditions: 10 μM compound
Outline: as §1

NQO2A = NQO2A (Homo sapiens, UniProt P16083); assay: DSF selectivity screening; conditions: 10 μM compound
Outline: as §1

PAK4A = PAK4A (Homo sapiens, UniProt O96013); assay: DSF selectivity screening; conditions: 10 μM compound
PAK4A, sequence (O96013 291-591): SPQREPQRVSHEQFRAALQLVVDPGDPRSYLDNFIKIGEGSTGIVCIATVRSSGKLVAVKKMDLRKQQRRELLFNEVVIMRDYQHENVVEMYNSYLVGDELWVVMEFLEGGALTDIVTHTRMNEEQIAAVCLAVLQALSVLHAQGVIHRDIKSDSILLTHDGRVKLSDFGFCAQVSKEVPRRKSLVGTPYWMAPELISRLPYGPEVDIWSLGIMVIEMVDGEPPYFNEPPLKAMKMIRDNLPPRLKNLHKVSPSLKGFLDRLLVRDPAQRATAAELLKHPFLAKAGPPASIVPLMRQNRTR
Outline: as §1

PCTK1A = PCTK1A (Homo sapiens, UniProt Q00536); assay: DSF selectivity screening; conditions: 10 μM compound
Outline: as §1

RIOK1A = RIOK1A (Homo sapiens, UniProt Q9BRS2); assay: DSF selectivity screening; conditions: 10 μM compound
Outline: as §1

SRPK1A = SRPK1A (Homo sapiens, UniProt Q96SB4); assay: DSF selectivity screening; conditions: 10 μM compound
SRPK1A, sequence (Q96SB4 whole entry): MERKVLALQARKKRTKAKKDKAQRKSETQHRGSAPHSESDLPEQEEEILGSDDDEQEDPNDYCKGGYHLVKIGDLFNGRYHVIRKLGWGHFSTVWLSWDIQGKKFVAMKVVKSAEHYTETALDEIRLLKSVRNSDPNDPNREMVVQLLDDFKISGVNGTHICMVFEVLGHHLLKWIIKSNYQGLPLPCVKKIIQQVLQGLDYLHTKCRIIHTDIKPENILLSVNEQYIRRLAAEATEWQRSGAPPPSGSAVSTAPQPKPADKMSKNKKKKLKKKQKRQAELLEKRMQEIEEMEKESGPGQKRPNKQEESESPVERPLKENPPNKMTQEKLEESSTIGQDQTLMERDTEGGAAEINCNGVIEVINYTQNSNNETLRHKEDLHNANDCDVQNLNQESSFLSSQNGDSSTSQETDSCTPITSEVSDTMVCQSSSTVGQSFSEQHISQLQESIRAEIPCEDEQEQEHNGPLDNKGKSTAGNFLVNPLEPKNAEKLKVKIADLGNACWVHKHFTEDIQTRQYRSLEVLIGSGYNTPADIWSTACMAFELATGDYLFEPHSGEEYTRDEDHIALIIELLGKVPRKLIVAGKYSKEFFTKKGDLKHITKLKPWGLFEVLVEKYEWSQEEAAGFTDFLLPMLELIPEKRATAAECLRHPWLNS
Outline: as §1

STK17BA = STK17BA (Homo sapiens, UniProt O94768); assay: DSF selectivity screening; conditions: 10 μM compound
Outline: as §1

STK3A = STK3A (Homo sapiens, UniProt Q13188); assay: DSF selectivity screening; conditions: 10 μM compound
Outline: as §1

STK6A = STK6A (Homo sapiens, UniProt O14965); assay: DSF selectivity screening; conditions: 10 μM compound
Outline: as §1

TIF1A = TIF1A (Homo sapiens, UniProt O15164); assay: DSF selectivity screening; conditions: 10 μM compound
Outline: as §1

TLK1A = TLK1A (Homo sapiens, UniProt Q9UKI8); assay: DSF selectivity screening; conditions: 10 μM compound
TLK1A, sequence (Q9UKI8 456-734): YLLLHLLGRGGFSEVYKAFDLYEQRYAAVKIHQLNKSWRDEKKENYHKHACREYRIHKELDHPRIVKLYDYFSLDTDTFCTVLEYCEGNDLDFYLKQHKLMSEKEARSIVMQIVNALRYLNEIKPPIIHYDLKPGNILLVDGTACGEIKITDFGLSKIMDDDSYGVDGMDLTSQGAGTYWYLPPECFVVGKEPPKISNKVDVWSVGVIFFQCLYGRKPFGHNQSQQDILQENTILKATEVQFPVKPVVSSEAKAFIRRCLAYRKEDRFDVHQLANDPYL
Outline: as §1

TOPKA = TOPKA (Homo sapiens, UniProt Q96KB5); assay: DSF selectivity screening; conditions: 10 μM compound
Outline: as §1

TTKA = TTKA (Homo sapiens, UniProt P33981); assay: DSF selectivity screening; conditions: 10 μM compound
Outline: as §1

ULK1A = ULK1A (Homo sapiens, UniProt O75385); assay: DSF selectivity screening; conditions: 10 μM compound
Outline: as §1

WNK1A = WNK1A (Homo sapiens, UniProt Q9H4A3); assay: DSF selectivity screening; conditions: 10 μM compound
WNK1A, sequence (Q9H4A3 194-483): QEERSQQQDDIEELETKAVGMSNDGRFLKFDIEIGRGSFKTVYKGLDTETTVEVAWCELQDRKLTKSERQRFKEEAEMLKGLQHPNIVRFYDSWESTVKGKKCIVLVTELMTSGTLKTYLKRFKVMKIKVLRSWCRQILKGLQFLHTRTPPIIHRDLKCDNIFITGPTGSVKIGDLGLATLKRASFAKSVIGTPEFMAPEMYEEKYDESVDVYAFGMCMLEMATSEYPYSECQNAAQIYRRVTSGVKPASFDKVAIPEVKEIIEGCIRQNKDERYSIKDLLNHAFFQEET
Outline: as §1

FLT3(ITD,D835V) = conditions: 1000 nM
EGFR(G719C) = EGFR(G719C) (Homo sapiens, UniProt P00533, G719C); assay: biochemical; conditions: 1000 nM, read-out: Percent Control
EGFR(S752-I759del) = EGFR(S752-I759del) (Homo sapiens, UniProt P00533, DEL752-759); assay: biochemical; conditions: read-out: Percent Control
PIK3CA(E542K) = PIK3CA(E542K) (Homo sapiens, UniProt P42336, E542K); assay: biochemical; conditions: read-out: Percent Control
PIK3CA(E542K), sequence (P42336 whole entry E542K): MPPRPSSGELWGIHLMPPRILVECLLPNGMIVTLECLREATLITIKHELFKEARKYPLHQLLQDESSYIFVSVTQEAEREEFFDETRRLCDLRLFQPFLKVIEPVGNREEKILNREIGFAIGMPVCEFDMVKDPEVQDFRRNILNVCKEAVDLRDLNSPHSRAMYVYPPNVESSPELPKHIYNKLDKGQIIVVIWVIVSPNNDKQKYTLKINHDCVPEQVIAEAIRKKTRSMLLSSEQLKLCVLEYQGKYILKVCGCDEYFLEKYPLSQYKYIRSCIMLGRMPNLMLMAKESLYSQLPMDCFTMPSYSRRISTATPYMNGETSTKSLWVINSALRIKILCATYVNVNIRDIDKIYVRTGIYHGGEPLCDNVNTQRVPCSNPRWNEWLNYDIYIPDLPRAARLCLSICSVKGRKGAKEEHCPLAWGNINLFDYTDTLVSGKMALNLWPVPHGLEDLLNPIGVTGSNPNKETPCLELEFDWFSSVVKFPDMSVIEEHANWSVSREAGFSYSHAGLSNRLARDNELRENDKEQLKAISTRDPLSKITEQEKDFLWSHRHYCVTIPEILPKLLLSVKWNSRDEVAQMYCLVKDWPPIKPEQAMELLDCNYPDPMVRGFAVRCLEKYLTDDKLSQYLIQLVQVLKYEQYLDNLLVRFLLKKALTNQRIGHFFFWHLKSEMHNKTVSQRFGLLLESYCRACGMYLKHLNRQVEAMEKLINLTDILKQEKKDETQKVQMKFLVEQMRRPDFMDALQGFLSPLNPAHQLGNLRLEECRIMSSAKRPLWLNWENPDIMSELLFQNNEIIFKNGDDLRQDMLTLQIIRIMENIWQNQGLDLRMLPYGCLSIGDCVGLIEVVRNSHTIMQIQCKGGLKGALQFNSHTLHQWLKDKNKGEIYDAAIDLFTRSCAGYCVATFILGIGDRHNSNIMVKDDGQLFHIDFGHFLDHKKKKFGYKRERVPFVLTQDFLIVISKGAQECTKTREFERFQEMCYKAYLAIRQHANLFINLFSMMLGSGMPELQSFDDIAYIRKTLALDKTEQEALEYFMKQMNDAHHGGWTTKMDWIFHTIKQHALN

[1] = target: ABL1(F317L)-phosphorylated (Homo sapiens, UniProt P00519, F317L); assay: biochemical; conditions: read-out: Percent Control
PIK3CA(H1047L) = PIK3CA(H1047L) (Homo sapiens, UniProt P42336, H1047L); assay: biochemical; conditions: compound concentration 100 nM; Entrez PIK3CA; read-out: Percent Control

## CN1C(=O)[C@@H](N2CCc3c(nn(Cc4ccccc4)c3C(N)=O)C2=O)COc2cc(Cl)ccc21 [Compound 10, (S)-2-benzyl-6-(8-chloro-5-methyl-4-oxo-2,3,4,5-tetrahydrobenzo[b][1,4]oxazepin-3-yl)-7-oxo-4,5,6,7-tetrahydro-2H-pyrazolo[3,4-c]pyridine-3-carboxamide]
CAMK1DA
  ΔTm at 10 µM: -0.2 °C
CAMK4A
  ΔTm at 10 µM: 0.1 °C
CAMKK2B
  ΔTm at 10 µM: -0.2 °C
CDC42BPAA
  ΔTM: -0.1 K
CHEK2A
  ΔTm at 10 µM: -0.1 °C
DAPK1A
  ΔTm at 10 µM: 0.1 °C
EPHA7A
  ΔTm at 10 µM: -0.1 °C
FGFR2A
  ΔTm at 10 µM: 0.1 °C
MAP2K6A
  ΔTm at 10 µM: 0.1 °C
MAP2K7
  ΔTm at 10 µM: 1.1 °C
MAP3K5A
  ΔTm at 10 µM: 0 °C
MAPK15A
  ΔTm at 10 µM: 0 °C
MAPK1A
  ΔTm at 10 µM: 0.1 °C
MAPKAPK2A
  ΔTm at 10 µM: 0 °C
MARK3A
  ΔTm at 10 µM: 0.3 °C
MARK4A
  ΔTm at 10 µM: -1.9 °C
NEK2
  ΔTm at 10 µM: 1.3 °C
NQO2A
  ΔTm at 10 µM: 0.6 °C
PAK4A
  ΔTm at 10 µM: 0.1 °C
PCTK1A
  ΔTm at 10 µM: 0.2 °C
RIOK1A
  ΔTm at 10 µM: 0.5 °C
SRPK1A
  ΔTm at 10 µM: 0 °C
STK17BA
  ΔTm at 10 µM: 0.1 °C
STK3A
  ΔTm at 10 µM: 0.2 °C
STK6A
  ΔTm at 10 µM: 0.1 °C
TIF1A
  ΔTm at 10 µM: 0.2 °C
TLK1A
  ΔTm at 10 µM: 0 °C
TOPKA
  ΔTm at 10 µM: -0.1 °C
TTKA
  ΔTm at 10 µM: -0.3 °C
ULK1A
  ΔTm at 10 µM: 0.1 °C
WNK1A
  ΔTm at 10 µM: 0.4 °C
FLT3(ITD,D835V)
  Percent Control: 81%
EGFR(G719C)
  remaining activity at 1 µM: 86%
EGFR(S752-I759del)
  remaining activity at 1 µM: 89%
PIK3CA(E542K)
  remaining activity at 1 µM: 94%
[1]
  remaining activity at 1 µM: 100%
PIK3CA(H1047L)
  remaining activity at 0.1 µM: 75%
